Patent US20260209777A1, “TARGETING GLYCOSYLPHOSPHATIDYLINOSITOL (GPI) PATHWAY PROTEINS TO TREAT OVARIAN CANCER” (UNIVERSITY OF MASSACHUSETTS, priority 2023, published 2026)

Columns and labels:
[1] = system: OVCAR8 cells; test: In vitro phagocytosis assay of OVCAR8 cells by PBMC-derived M2 macrophages; format: cell-based, human; conditions: bestatin 20 μM; for macrophage-mediated phagocytosis: OVCAR8, tosedostat 20 μM, ARM1 2 μM, vs DMSO; for phagocytosis of OVCAR8 cells: tosedostat 10 μM vs DMSO, anti-CD24 antibody (clone SN3) vs IgG (FIG. 9C)
Text: Macrophage Generation and Stimulation: Primary human donor-derived macrophages were generated as described previously (Martinez, Curr Protocol Immunol 2012, Chapter 14:14.28.1-14.28.23). In brief, Leukopaks from anonymous donors were obtained from the Rhode Island Blood (Providence, RI) and peripheral blood […] (PBMCs) were isolated by density gradients centrifugation using Ficoll Paque Plus (Sigma-Aldrich, Cat #17-1440-02) followed by RBC lysis using RBC lysis buffer (eBioscience, Cat #00-4333-57). For monocyte isolation, PBMCs were incubated in Monocyte Attachment Medium (Sigma-Aldrich, Cat #C-28051) for 1 hour at 37° C. and 5% CO2 and then washed three times in Iscove's Modified Dulbecco's Medium (IMDM) (Gibco, Cat #12440053) to remove non-adherent cells. The remaining monocytes were detached and seeded in 96-well plates and cultured at 37° C. and 5% CO2 in IMDM supplemented with 10% FBS (Atlanta Biologicals, Cat #S11550) and 20 ng/ml recombinant human M-CSF (Peprotech, Cat #AF-300-25). After 4 days monocytes were then treated with 20 ng/ml recombinant human IL-4 (Peprotech, Cat #200-04) and 10 ng/mL recombinant human IL-10 (PeproTech, Cat #200-10) for another 3-4 days to obtain M2 polarized macrophages. Macrophage differentiation was confirmed morphologically using microscopy. M2-macrophage polarization was confirmed by immunophenotyping of the M2 marker CD206 using PE-conjugated anti-human anti-CD206 antibody (BioLegend, Cat #321106, clone 15-2, 1:100 dilution). In vitro Phagocytosis Assays: To facilitate the quantification of phagocytic events, we adapted a microscopy-based fluorescence phagocytosis […] al., J Immunol Methods 2009, 342(1-2):71-7; Lindner et al., Biotechniques 2020, 68(5):245-250) for use with a Celigo imaging cytometer. […] Cells were incubated with pHrodo Red, SE (Invitrogen, Cat #P36600) on ice for 30 min and then co-cultured with PBMC-derived M2 macrophages (prepared as described above) at a ratio of 1:2 (OVCAR8/B cells: macrophages) for 2 hours in a humidified 5% CO2 incubator at 37° C. Phagocytic events were quantified by counting the number of red fluorescent (pHrodo+) cells per well using a Celigo Imaging Cytometer (Nexcelom). EmGFP was used for the visualization of cancer cells in imaging Phagocytic events were also quantified using a previously-described flow cytometry-based assay (Barkal et al., Nature 2019, 572(7769):392-396; […] et al., Biomedicines 2022, 10(5):1175). In brief, M2 macrophages co-cultured with OVCAR8/EmGFP-luc cells were detached using TrypLE Express (GibcoTM, cat #12604013), stained with APC anti-human CD11b clone ICRF44 (BioLegend, Cat #982604) and analyzed by flow cytometry (BioRad ZE5). Double-positive EmGFP+CD11b+ cells were considered phagocytic events.

[2] = system: normal B cells; test: In vitro phagocytosis assay of normal B cells by PBMC-derived M2 macrophages; format: cell-based, human; conditions: for phagocytosis of B cells: bestatin 20 μM, tosedostat 10 μM vs DMSO, anti-CD24 antibody (clone SN3) vs IgG (FIG. 9B); for selectivity, CD24+ ovarian cancer cells relative to normal CD24+ B cells: comparison of FIG. 9B and 9C
Text: Macrophage Generation and Stimulation: Primary human donor-derived macrophages were generated as described previously (Martinez, Curr Protocol Immunol 2012, Chapter 14:14.28.1-14.28.23). In brief, Leukopaks from anonymous donors were obtained from the Rhode Island Blood (Providence, RI) and peripheral blood […] (PBMCs) were isolated by density gradients centrifugation using Ficoll Paque Plus (Sigma-Aldrich, Cat #17-1440-02) followed by RBC lysis using RBC lysis buffer (eBioscience, Cat #00-4333-57). For monocyte isolation, PBMCs were incubated in Monocyte Attachment Medium (Sigma-Aldrich, Cat #C-28051) for 1 hour at 37° C. and 5% CO2 and then washed three times in Iscove's Modified Dulbecco's Medium (IMDM) (Gibco, Cat #12440053) to remove non-adherent cells. The remaining monocytes were detached and seeded in 96-well plates and cultured at 37° C. and 5% CO2 in IMDM supplemented with 10% FBS (Atlanta Biologicals, Cat #S11550) and 20 ng/ml recombinant human M-CSF (Peprotech, Cat #AF-300-25). After 4 days monocytes were then treated with 20 ng/ml recombinant human IL-4 (Peprotech, Cat #200-04) and 10 ng/mL recombinant human IL-10 (PeproTech, Cat #200-10) for another 3-4 days to obtain M2 polarized macrophages. Macrophage differentiation was confirmed morphologically using microscopy. M2-macrophage polarization was confirmed by immunophenotyping of the M2 marker CD206 using PE-conjugated anti-human anti-CD206 antibody (BioLegend, Cat #321106, clone 15-2, 1:100 dilution). Primary B-cell Isolation and Culture: Pan B cells were isolated by negative selection from PBMCs isolated from Leukopaks (as described above) using a MojoSort Human Pan B Cell Isolation Kit (BioLegend, Cat #480081) according to the manufacturer's instructions. The purity of B cells was confirmed to be >95% by flow cytometry using a FITC anti-human CD19 antibody (BioLegend, Cat #302205, clone HIB19). B cells were cultured in RPMI 1640 medium supplemented with 5% human serum (Sigma-Aldrich, Cat #H6914), MEM non-essential amino acids solution (Gibco, Cat #1140050), and recombinant human IL-2 (50 ng/ml) (PeproTech, Cat #200-02) and IL-4 (10 ng/ml) (PeproTech, Cat #200-04). In vitro Phagocytosis Assays: To facilitate the quantification of phagocytic events, we adapted a microscopy-based fluorescence phagocytosis […] al., J Immunol Methods 2009, 342(1-2):71-7; Lindner et al., Biotechniques 2020, 68(5):245-250) for use with a Celigo imaging cytometer. […] Phagocytic events were quantified by counting the number of red fluorescent (pHrodo+) cells per well using a Celigo Imaging Cytometer (Nexcelom). […]

SMILES | macrophage-mediated phagocytosis [1] | phagocytosis of OVCAR8 cells [1] | phagocytosis of B cells [2] | selectivity, CD24+ ovarian cancer cells relative to normal CD24+ B cells [2]
CC(C)C[C@H](NC(=O)[C@@H](O)[C@H](N)Cc1ccccc1)C(=O)O [bestatin] | substantially increased | susceptible | did not undergo phagocytosis | selectivity toward CD24+ ovarian cancer cells relative to normal CD24+ B cells
CC(C)C[C@@H](C(=O)N[C@H](C(=O)OC1CCCC1)c1ccccc1)[C@H](O)C(=O)NO [tosedostat] | increased | susceptible | did not undergo phagocytosis | selectivity toward CD24+ ovarian cancer cells relative to normal CD24+ B cells
